Measured values: US20090215841A1, “D2 Receptor Ligand-078” (ASTRAZENECA AB, priority 2008, published 2009)

Assays:
[1] = biological target: D2s receptor (membranes from D2s stably-transfected CHO cells) (Homo sapiens, UniProt P14416); assay: GTPγS assay, block of dopamine-stimulated [35S]-GTPγS binding
Procedure: GTPγS assay was performed substantially as described by Lazareno. […] Antagonist activity of compounds was determined by the ability of test compounds to block dopamine-stimulated [^35S]-GTPγS binding to cell membranes from D2s stably-transfected CHO cells.

[2] = biological target: D2S receptor (Homo sapiens, UniProt P14416); assay: D2 receptor binding assay ([3H]-raclopride displacement)
Procedure: The ability of test compounds to displace ^3H-raclopride at the D2S receptor was determined on membranes from D2s-transfected CHO cells (Bmax 13 pmol/mg protein). An assay uses a standard 96-well glass fiber filter plate to retain radioligand bound by the receptor. Retained ^3H is determined in a TopCount scintillation plate counter following the addition of a liquid scintillant to each well. Compounds are evaluated for their potency using competition curve analysis, resulting in calculated Ki values.

[3] = system: rat plasma prolactin levels; assay: Prolactin assay (plasma prolactin by ELISA); format: in vivo; details: male Sprague Dawley rats, s.c., one-hour post dose
Source text: As discussed above, hyperprolactinemia is a side effect that can be observed following administration of D2 antagonists. In contrast, administration of D2 agonists to human subjects results in large reductions in prolactin levels in blood (hypoprolactinemia).
Male Sprague Dawley rats were subcutaneously administered with vehicle or test compounds. Trunk blood was collected one-hour post dose and plasma evaluated by an ELISA assay to determine prolactin levels.

[4] = system: Male Long-Evans rats; assay: Conditioned Avoidance Responding (CAR) assay; format: in vivo, rat; details: for motor impairment in CAR (shock escapes): dose not stated; for efficacy in CAR (shock avoidance): rats, dosed 60 min prior to testing
Procedure: Male Long-Evans rats were trained to traverse to the opposite side of a standard shuttle cage following presentation of an auditory and visual stimulus in order to avoid delivery of electric shock to the floor of the cage. Daily sessions consisted of up to 80 trials. If shock was delivered, animals always had the opportunity to escape the shock by traversing to the opposite side of the cage. Drug was administered (via s.c. or p.o. route) 60 min prior to testing and the percentage of trials in which shock was avoided and escaped was recorded.

[5] = system: CF-1 male mice; assay: Catalepsy assay, mice; format: in vivo, mouse
Procedure: (§1) CF-1 male mice or Sprague Dawley rats are dosed (via i.p., p.o. or s.c. route) with a test compound at given concentrations or a vehicle. […] The length of time (in seconds) during which each mouse maintains the initial forepaw bar position is recorded (cataleptic pose). Maximum cut-off observation time is 60 seconds. Results are expressed as means (in sec) for each dose group.

[6] = system: D-amphetamine hyperlocomotion in habituated rats; assay: D-amphetamine-induced hyperlocomotor activity (LMA) in habituated rat model; details: in vivo, sc, 1 mg/kg
Procedure: LMA was assessed in male Long Evans rats using a paradigm that included a habituation phase followed by administration of 1 mg/kg D-amphetamine. Animals were allowed to acclimatize to the testing room for 1 hour before being weighed and placed into activity chambers. Thirty minutes after LMA measurements began, animals were briefly removed, subcutaneously dosed with vehicle or test drug at different doses (μmol/kg), and returned to the chambers. After 30 minutes, animals were again removed and dosed with vehicle or D-amphetamine at 1 mg/kg (s.c.). After returning animals to the activity chambers, LMA was assessed for 60 minutes. […] Statistical analysis was made of total distance traveled after D-amphetamine administration using ANOVA and Tukey's post hoc analysis where appropriate. All values are expressed as Mean and SD.

[7] = system: Sprague Dawley rats; assay: Catalepsy assay, rats; format: in vivo, rat
Procedure: as §1

Chain of D2s receptor (membranes from D2s stably-transfected CHO cells) (P14416 1-414 isoform P14416-2): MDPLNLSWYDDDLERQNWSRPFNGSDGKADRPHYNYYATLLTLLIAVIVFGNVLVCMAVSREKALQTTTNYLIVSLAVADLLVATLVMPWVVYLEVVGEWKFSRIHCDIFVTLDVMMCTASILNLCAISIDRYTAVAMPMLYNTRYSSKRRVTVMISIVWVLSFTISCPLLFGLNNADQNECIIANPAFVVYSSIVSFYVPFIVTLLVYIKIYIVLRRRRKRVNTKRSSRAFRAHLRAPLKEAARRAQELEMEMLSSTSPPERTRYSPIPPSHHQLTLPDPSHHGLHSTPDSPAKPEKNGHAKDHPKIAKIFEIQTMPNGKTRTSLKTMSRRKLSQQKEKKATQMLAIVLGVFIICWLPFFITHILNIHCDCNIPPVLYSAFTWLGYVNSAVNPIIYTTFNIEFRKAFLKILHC
Chain of D2S receptor (P14416 1-414 isoform P14416-2): as above

| SMILES | IC50 [1] | Ki [2] | motor impairment in CAR (shock escapes) [4] | no observable effect level (NOEL) on plasma prolactin [3] | efficacy in CAR (shock avoidance) [4] | catalepsy ([5]; 30 μmol/kg) | MED, reversal of LMA [6] | catalepsy [7] | catalepsy ([5]; positive control) |
| --- | --- | --- | --- | --- | --- | --- | --- | --- | --- |
| CCN(CC)[C@@H]1Cc2cc3nc(N)sc3cc2C1 | 74.1 nM | 21.9 nM |  |  |  |  |  |  |  |
| Cc1nc2n(c(=O)c1CCN1CCC(c3noc4cc(F)ccc34)CC1)CCCC2 [Risperidone] |  |  |  | 0.07 µmol/kg |  |  |  |  |  |
| CCCN[C@@H]1Cc2cc3nc(N)sc3cc2C1 [Compound C3] | 437 nM | 115 nM | exhibited motor impairment | 10 µmol/kg | effective | exhibited catalepsy | 10 µmol/kg |  |  |

Further lines, with some results ahead:

| IC50 [1] | Ki [2] | motor impairment in CAR (shock escapes) [4] | SMILES | no observable effect level (NOEL) on plasma prolactin [3] | efficacy in CAR (shock avoidance) [4] | catalepsy ([5]; 30 μmol/kg) | MED, reversal of LMA [6] | catalepsy [7] | catalepsy ([5]; positive control) |
| --- | --- | --- | --- | --- | --- | --- | --- | --- | --- |
| 417 nM | 151 nM |  | CN[C@@H]1Cc2cc3nc(N)sc3cc2C1 |  |  |  |  |  |  |
|  |  | exhibited motor impairment | O=C1CCc2ccc(OCCCCN3CCN(c4cccc(Cl)c4Cl)CC3)cc2N1 [Aripiprazole] | 2.2 µmol/kg | effective |  |  |  |  |
|  |  | exhibited motor impairment | O=C(CCCN1CCC(O)(c2ccc(Cl)cc2)CC1)c1ccc(F)cc1 [Haloperidol] |  | effective |  |  | induced catalepsy | induced catalepsy |
